From US12630544B2, “Compound, α-synuclein aggregate binder, and use thereof” (NATIONAL INSTITUTES FOR QUANTUM SCIENCE AND TECHNOLOGY, priority 2020, dated 2026)

Legend:
α-synuclein aggregates [1] = molecular target: T1, α-synuclein aggregates (Homo sapiens, UniProt P37840); experiment: In vitro fluorescence microscope measurement, amygdala sections of DLB patient brain; set-up: α-synuclein aggregates formed in the brain of the DLB patient; from tissue; host or cells: post-mortem human brain: amygdala of DLB patient (sections or homogenate); cerebellum of MSA patient; details: 30 μM test compound
Text: (§1) Postmortem human brains were obtained in autopsies carried out with respect to a patient with dementia with Lewy bodies (DLB) and a patient with Alzheimer's disease (AD). In a cryostat (HM560, Carl Zeiss), frozen tissue from the DLB patient was sliced into sections each having a thickness of 20 μm. Brain tissue from the AD patient was fixed in 10% neutral buffered formalin, embedded in a paraffin block, and sliced into sections each having a thickness of 6 μm.
Postfixed fresh frozen sections of amygdala tissue obtained from the brain of the DLB patient and deparaffinized sections of formalin-fixed paraffin-embedded middle frontal gyrus tissue obtained from the brain of the AD patient were used. Each brain section and a 30 μM test compound were incubated in a 50% ethanol solution at room temperature for 30 minutes. Thereafter, the section was washed with a 50% ethanol solution for 5 minutes and with ultrapure water for 3 minutes. This washing was carried out twice. After the section was mounted in a mounting medium (VECTASHIELD H-1000, Vector Laboratories), an image of a lesion-enriched area on the section was obtained with use of a fluorescence microscope (DM4000, Leica, excitation wavelength: 391 nm to 437 nm). In FIG. 1, each arrowhead indicates fluorescence from the compound binding to α-synuclein aggregates in the brain of the DLB patient, each arrow indicates fluorescence from the compound binding to amyloid-β aggregates in the brain of the AD patient, and an asterisk indicates fluorescence from the compound binding to tau aggregates in the brain of the AD patient. The fluorescence intensities of lesion-enriched areas and lesion-free areas (background) were quantified with use of analysis software (Image J). Note that SPAL-T-05 and SPAL-T-06 were each used as the test compound. Note also that BF-227 (2-(2-[2-dimethylaminothiazol-5-yl]ethenyl)-6-(2-[fluoro]ethoxy)benzoxazole (catalog No.: NP039-0)) and PBB3 (2-((1E,3E)-4-(6-(methylamino)pyridin-3-yl)buta-1,3-dienyl)benzo[d]thiazol-6-ol) (catalog No.: NP039-0), each available from NARD INSTITUTE, LTD., were each used as a control compound.

[2] = tested on: tau aggregates or amyloid-β aggregates; experiment: In vitro fluorescence microscope measurement, middle frontal gyrus sections of AD patient brain; set-up: species or system human; details: 30 μM compound
Text: as §1
Postfixed fresh frozen sections of amygdala tissue obtained from the brain of the DLB patient and deparaffinized sections of formalin-fixed paraffin-embedded middle frontal gyrus tissue obtained from the brain of the AD patient were used. […] After the section was mounted in a mounting medium (VECTASHIELD H-1000, Vector Laboratories), an image of a lesion-enriched area on the section was obtained with use of a fluorescence microscope (DM4000, Leica, excitation wavelength: 391 nm to 437 nm). In FIG. 1, each arrowhead indicates fluorescence from the compound binding to α-synuclein aggregates in the brain of the DLB patient, each arrow indicates fluorescence from the compound binding to amyloid-β aggregates in the brain of the AD patient, and an asterisk indicates fluorescence from the compound binding to tau aggregates in the brain of the AD patient. […]

α-synuclein lesion = molecular target: T2, α-synuclein lesion (Mus musculus, UniProt O55042); experiment: In vivo two-photon laser scanning fluorescence microscopy of α-synuclein fibril-inoculated model mouse; details: 50 μl DMSO solution containing 0.1% compound, i.p.; excitation 900 nm
T2 construct: from tissue; host or cells: brain of C57/BL/6 mouse inoculated in the striatum with recombinant (E. coli) mouse α-synuclein fibrils; sections or living animal
Procedure: First, mouse α-synuclein was expressed in and extracted from E. coli as a recombinant protein, and then incubated in vitro to form insoluble α-synuclein aggregates. The α-synuclein aggregates were then inoculated into the striatum of a mouse. […] Note that the inoculation of the α-synuclein aggregates into the striatum of the mouse was carried out in the following manner. First, hair on the head of a 9-week-old C57/BL/6 male mouse which had been anesthetized with 1.5% (v/v) isoflurane was removed, and the scalp was disinfected with isodine, followed by application of xylocaine and incision in the scalp to expose the skull. Then, a hole was drilled in the skull at a position of 0.05 mm posterior to the bregma and 2 mm lateral to the midline, and 3 μl of an α-synuclein fibril solution (mouse α-synuclein fibril (4 mg/ml) in saline) was injected into a position […] ventral to the brain surface with use of a glass pipette. The scalp was then returned and sutured.
A model mouse was anesthetized with 1.5% (v/v) isoflurane 6 or more weeks after inoculation of an α-synuclein fibril solution. Then, a cranial window was placed on the model mouse in accordance with the Seylaz-Tomita method (Tomita et al. J Cereb Blood Flow Metab 25, 858-67, 2005). Two or more weeks after the placement of the cranial window, the mouse was anesthetized with 1.5% (v/v) isoflurane, and then 50 μl of a DMSO solution containing 0.1% BF-227, PBB3, SPAL-T-05, or SPAL-T-06 was intraperitoneally administered to the mouse. Thirty minutes after the administration, the mouse was fixed under a two-photon laser fluorescence microscope, 100 μl of physiological saline containing 5 mM Sulforhodamine 101 was intraperitoneally administered to the mouse, and then intravital two-photon fluorescence imaging was carried out at an excitation wavelength of 900 nm. Detection wavelengths for BF-227, PBB3, SPAL-T-05, and SPAL-T-06 were set at 500 nm to 550 nm, and a detection wavelength for Sulforhodamine 101 was set at 573 nm to 648 nm. In FIG. 4, each arrowhead indicates a blood vessel, and each arrow indicates fluorescence from the compound binding to an α-synuclein lesion.

α-synuclein aggregates [3] = molecular target: T1, α-synuclein aggregates; details: background statement, cited from earlier work

| binding selectivity: α-synuclein aggregates (DLB brain) versus tau aggregates or amyloid-β aggregates (AD brain) (α-synuclein aggregates [1]; fluorescence of lesion-enriched vs lesion-free areas) | binding to aggregates in the brain of the AD patient (fluorescence) [2] | detection of / binding to α-synuclein lesions in living mouse brain (two-photon fluorescence) (α-synuclein lesion) | SMILES | binding to α-synuclein aggregates formed in the brain of the DLB patient (fluorescence) (α-synuclein aggregates [1]; 50% ethanol, room temperature, 30 minutes, amygdala sections) | binding selectivity with respect to the α-synuclein aggregates (α-synuclein aggregates [3]; binds to amyloid-β aggregates) | binding affinity with respect to the α-synuclein aggregates (α-synuclein aggregates [3]) |
| --- | --- | --- | --- | --- | --- | --- |
| low binding selectivity | mainly bound to the amyloid-β aggregates | no α-synuclein lesion was detected | CN(C)c1ncc(C=Cc2nc3ccc(OCCF)cc3o2)s1 [BF-227, 2-(2-[2-dimethylaminothiazol-5-yl]ethenyl)-6-(2-[fluoro]ethoxy)benzoxazole, reference compound] | weaker than that of each of SPAL-T-06 and SPAL-T-05 | – | – |
| – | – | – | CN(C)c1ncc(C=Cc2nc3ccc(OCCF)cc3o2)s1 [[^11C]BF-227] | – | low binding selectivity | insufficient binding affinity |
| – | – | no α-synuclein lesion was detected | CNc1ccc(/C=C/C=C/c2nc3ccc(O)cc3s2)cn1 [PBB3, 2-((1E,3E)-4-(6-(methylamino)pyridin-3-yl)buta-1,3-dienyl)benzo[d]thiazol-6-ol, reference compound] | – | – | – |
